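96-well plates; 48 h exposure; 5 concentrations. Endpoints by linear interpolation between flanking doses. Not reached: highest tested concentration assigned. GI50: concentration for 50% inhibition of growth. The concentration for full growth arrest is given as TGI.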
Test system: MDA-MB-468 breast
Experiment: NCI-60 cell line screen, 48 h

SMILES | GI50 [µM] | TGI [µM]
C=C(C)[C@@H]1CC[C@]2(C)[C@H](CC[C@@H]3[C@@H]([C@@](C)(O)CCC=C(C)C)CC[C@]32C)[C@@]1(C)CCC(=O)O | 22.4 | 60.4
COC(=O)[C@]12CC[C@@H](C)[C@H](C)[C@@H]1C1=CC[C@@H]3[C@@]4(C)C(C=O)=C[C@@](C)(COC(=O)c5ccco5)[C@@H]4[C@H](O)C[C@@]3(C)[C@]1(C)CC2 | 1.69 | 5.66
Oc1ccc(N=Nc2nccs2)c(O)c1 | 4.76 | > 100
CCOC(=O)C1=C(N)Oc2c(sc3c(C)cccc23)C1c1ccc(F)cc1 (centres undefined) | 1.16 | 8.8
NCCCOc1cc2ccccc2cc1C(=O)NCCCOc1cc2ccccc2cc1C(=O)Nc1ccc(Cl)cc1O | 0.238 | 0.821
CN(C)CCNc1nc2ccccc2c2c(=O)c3cc(F)ccc3sc12 | 1.65 | 3.22
O=C(N[C@@H](Cc1coc2ccccc12)B(O)O)[C@@H]1C[C@H]2CC[C@@H]1O2 | 3.38 | 36
c1ccc2c(c1)c1ccccc1c1ccccc21 | > 100 | > 100
O=C(NNc1cnccn1)c1nc2cc(F)ccc2n2cccc12 | 0.419 | 3.03
CC1(C)N=C(N)N=C(N)N1c1cccc(OCCOc2cccc([N+](=O)[O-])c2)c1 | 0.463 | 21.6
O=C(Nc1ccc(Cl)cc1)Nc1nccs1 | 0.398 | 3.7
COc1ccc(-c2cc(Nc3ccnc(N4CCOCC4)n3)on2)cc1 | 0.375 | 2.49
Cc1sc2c(c1C)C(c1ccc(Cl)cc1)=N[C@@H](CC(=O)Nc1ccc(OCCOCCOCCOCCNc3cccc4c3C(=O)N(C3CCC(=O)NC3=O)C4=O)cc1)c1nnc(C)n1-2 (some centres undefined) | < 0.0201 | > 100
COc1cc(/C=C2\CCC/C(=C\c3ccc(OCC4CO4)c(OC)c3)C2=O)ccc1OCC1CO1 (centres undefined) | 1.63 | 4.85
Cc1noc2c1-c1ccccc1C(c1ccc(Cl)cc1)=N[C@H]2CC(N)=O | 1.5 | > 64.5
O=C(CCN1CCOCC1)Nc1cccc(-n2cc(-c3ccncc3)c(-c3ccc(Cl)c(O)c3)n2)c1 | 1.25 | 3.95

SMILES | GI50 [µM] | TGI [µM]
NC(=O)CNc1ccc([As]=[As]c2ccc(NCC(N)=O)cc2)cc1 (centres undefined) | 1.13 | 4.09
Cn1cc(-c2csc(-c3cn(C)c4ccc(F)cc34)n2)c2cnccc21 | 1.86 | 3.53
Oc1ccc(Oc2cnc3ccccc3n2)cc1 | 49.4 | > 100
NC(N)=N/N=C(\N=Nc1ccccc1)c1ccc(Cl)cc1 | 2.12 | 5.41
O=C(NC1CCCCC1)c1ccc(Nc2ncnc3c2cnn3-c2ccccc2)cc1 | 21.7 | > 100
COc1ccc(-c2nn(-c3cccc(Cl)c3)cc2-c2nc(N)[nH]c(=O)c2C#N)cc1 | 2.12 | 6.43
O=C1c2ccccc2C(=O)c2c(NCCN=Cc3ccccc3O)cccc21 | 1.69 | 4.42
Cn1cc(S(=O)(=O)N2CCC3=Cc4c(cnn4-c4ccc(F)cc4)C[C@]3(C(=O)c3cc(C(F)(F)F)ccn3)C2)cn1 | 68.8 | > 100
COc1ccc(-c2ccc(NNC(=O)c3ccc(F)cc3)nn2)cc1OC | 64.3 | > 100
CNCCn1c(=O)c2cc(OC)c(OC)cc2c2cnc3cc4c(cc3c21)OCO4 | < 0.01 | < 0.0177
O=C1/C(=C/N2N=C(c3ccc4ccccc4c3)CC2c2ccccc2O)SC(=S)N1c1cccnc1 (centres undefined) | 1.06 | 5.33
Cc1cc(NCCCCNc2ccnc3cc(Cl)ccc23)nc(Nc2ccc(C(=O)N3CCCCC3)cc2)n1 | 1.37 | 3.09
COc1cc(OC)c2sc(-c3ccc(-n4cncc4-c4cc(OC)c(OC)c(OC)c4)cc3)nc2c1 | 3.27 | > 100
COc1ccc(-c2noc(N)c2-c2cc(OC)c3c(c2)OCO3)cc1 | 0.966 | 7.47
NCCCOc1cc(Cl)ccc1NC(=O)c1cc2ccccc2cc1OCCCN | 0.543 | 1.89
O=C(N/N=C/c1ccc(O)cc1O)c1cccnc1 | 2.23 | 11.8
